Measurements published in patent US9388149B2, “Disubstituted 3,4-diamino-3-cyclobutene-1,2-dione compounds for use in the treatment of chemokine-mediated diseases” (GALDERMA RESEARCH & DEVELOPMENT, priority 2011, dated 2016).
Values belong to the compound of their own block, whether it stands above or below them.

Assays:
[1] = molecular target: CXCR3 (Homo sapiens (Human), UniProt P49682); experiment: Calcium flux on Chem-1 cells expressing the chemokine receptor (FLIPR TETRA), antagonist mode; conditions: IC50 CXCR3, antagonist activity, reference agonist at AC80
Protocol: (§3) Measurement of calcium flux on cells: The experiments were carried out on the FLIPR TETRA® platform from Molecular Devices.
(§4) Each cell line expressing a chemokine receptor was established on the basis of the Chem-1 cell stably expressing the recombinant form of the chemokine receptor and also an associated G protein, with the aim of coupling the receptor to the calcium signalling pathway.
(§5) 21 receptors belonging to the chemokine receptor family (CCRs and CXCRs) were analyzed.

[2] = molecular target: CCR6 (Homo sapiens (Human), UniProt P51684); experiment: as above; format: cell-based; conditions: antagonist activity, reference agonist at AC80
Protocol: as §3, §4, §5

[3] = Metabolic stabilities in hepatic microsomes; conditions: hepatic microsomes 0.5 mg/ml protein, compound 1 μM, sampling up to 60 minutes; for half-life at 1 μM: hepatic microsomes, pH 7.4, Half-life time (min)
Protocol: Hepatic microsomes (Becton Dickinson) were incubated at a protein concentration of 0.5 mg/ml in the reaction medium.
The reaction medium of the microsomes was composed of phosphate buffer, pH: 7.4 at 100 mM, of MgCl2 at 100 mM (50/50), of an ATP-generating system composed of a mixture of nicotinamide adenine diphosphate (NADP), of glucose-6-phosphate (G6P) at 1 mg/ml and of glucose-6-phosphate dehydrogenase (G6PDH) at 4 U/ml. The compounds were tested at 1 μM (0.1% DMSO).
The samples of incubation medium after addition of the microsomes were taken at times 5, 10, 15, 30 and 60 minutes. At each time, the metabolic reaction was stopped by adding methanol (1 volume incubation medium/3 volumes of methanol). The disappearance of the parent product was measured by LC/MS/MS analysis. The time for which 50% of parent product disappeared (T1/2) was calculated from the kinetics of disappearance of the parent product as a function of time.

[4] = Metabolic stabilities in hepatocytes; format: in vitro ADME; conditions: compound 1 μM, sampling up to 24 hours; for Half-life time: human hepatocytes; for half-life at 1 μM: human, hepatocytes, read-out: Half-life time
Protocol: The human hepatocytes were supplied by Biopredic in 24-well plates.
The samples of incubation medium after addition of the test compound were taken at times t=0, 1, 2, 4, 6 and 24 hours.

[5] = molecular target: CXCR2 receptor (Homo sapiens (Human), UniProt P25025); experiment: β-arrestin recruitment test, PathHunter HEK293-CXCR2 cells stimulated with CXCL8; format: cell-based; conditions: inhibition of CXCL8 (10 nM) induced β-arrestin 2 recruitment; *9999 signifies not active
Protocol: (§1) The in vitro affinity of the compounds of the present invention for the CXCR1 and CXCR2 receptors was determined on a functional test of the β-arrestin recruitment after receptor activation type.
(§2) β-Arrestin recruitment test: “PathHunter HEK293-CXCR2” or “U2OS hCXCR1 β-arrestin” cells (DiscoveRx Corporation) were seeded overnight at 10 000 cells/well (384-well format) in 20 μl of Opti MEM I medium. A preincubation with the antagonist or the vehicle for 30 min at 37° C. and 5% CO2 was followed by 60 minutes of stimulation with CXCL8 at 37° C. and 5% CO2. The cells were then placed at ambient temperature for 30 minutes. The PathHunter detection reagent (DiscoveRx Corporation) was added. […] The data were analyzed by means of a non-linear curve procedure using the XLFit4 exploitation software (IDBS) and the IC50 values were determined.

[6] = molecular target: CCR8 (Homo sapiens (Human), UniProt P51685); experiment: Calcium flux on Chem-1 cells expressing the chemokine receptor (FLIPR TETRA), antagonist mode; format: cell-based; conditions: antagonist activity, reference agonist at AC80
Protocol: as §3, §4, §5

[7] = molecular target: FPR1 (Homo sapiens (Human), UniProt P21462); experiment: Calcium flux on Chem-1 cells expressing the receptor (FLIPR TETRA), antagonist mode; format: cell-based; conditions: antagonist activity, reference agonist at AC80
Protocol: as §3, §4

[8] = molecular target: CCR7 (Homo sapiens (Human), UniProt P32248); experiment: Calcium flux on Chem-1 cells expressing the chemokine receptor (FLIPR TETRA), antagonist mode; format: cell-based; conditions: antagonist activity, reference agonist at AC80
Protocol: as §3, §4, §5

[9] = molecular target: CCR4 (Homo sapiens (Human), UniProt P51679); experiment: as above
Protocol: as §3, §4, §5

[10] = molecular target: CXCR1 receptor (Homo sapiens (Human), UniProt P25024); experiment: β-arrestin recruitment test, U2OS hCXCR1 β-arrestin cells stimulated with CXCL8; format: cell-based; conditions: inhibition of CXCL8 (10 nM) induced β-arrestin 2 recruitment; *9999 signifies not active
Protocol: as §1, §2

[11] = test system: panel of 20 chemokine receptors; experiment: Receptor profiling on a panel of 20 chemokine receptors (calcium flux); conditions: result in words
Protocol: as §3, §4

[12] = test system: receptors of CXCR1 and CXCR2 type; conditions: pseudo-irreversible dissociation, literature value; cited from earlier work

Sequence of CXCR3 (P49682 whole entry): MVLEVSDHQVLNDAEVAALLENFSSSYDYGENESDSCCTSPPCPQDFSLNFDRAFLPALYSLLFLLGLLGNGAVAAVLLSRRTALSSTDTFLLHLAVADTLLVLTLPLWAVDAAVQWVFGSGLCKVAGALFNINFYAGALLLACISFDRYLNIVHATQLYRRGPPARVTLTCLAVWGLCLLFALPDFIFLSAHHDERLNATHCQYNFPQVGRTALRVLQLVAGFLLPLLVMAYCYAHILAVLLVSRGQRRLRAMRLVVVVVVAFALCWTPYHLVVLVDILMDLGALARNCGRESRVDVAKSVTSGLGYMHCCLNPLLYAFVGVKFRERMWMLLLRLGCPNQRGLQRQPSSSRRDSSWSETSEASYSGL
Sequence of CCR4 (P51679 whole entry): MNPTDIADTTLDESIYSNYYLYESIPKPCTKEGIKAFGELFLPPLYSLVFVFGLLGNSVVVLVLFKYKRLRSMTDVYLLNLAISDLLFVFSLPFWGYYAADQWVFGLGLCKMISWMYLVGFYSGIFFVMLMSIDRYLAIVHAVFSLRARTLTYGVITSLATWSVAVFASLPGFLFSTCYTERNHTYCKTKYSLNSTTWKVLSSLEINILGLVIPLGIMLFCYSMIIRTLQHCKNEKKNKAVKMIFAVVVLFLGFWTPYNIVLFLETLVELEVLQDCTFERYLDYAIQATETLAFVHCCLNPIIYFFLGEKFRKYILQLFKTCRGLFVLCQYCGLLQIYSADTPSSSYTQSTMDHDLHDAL
Sequence of CXCR1 receptor (P25024 whole entry): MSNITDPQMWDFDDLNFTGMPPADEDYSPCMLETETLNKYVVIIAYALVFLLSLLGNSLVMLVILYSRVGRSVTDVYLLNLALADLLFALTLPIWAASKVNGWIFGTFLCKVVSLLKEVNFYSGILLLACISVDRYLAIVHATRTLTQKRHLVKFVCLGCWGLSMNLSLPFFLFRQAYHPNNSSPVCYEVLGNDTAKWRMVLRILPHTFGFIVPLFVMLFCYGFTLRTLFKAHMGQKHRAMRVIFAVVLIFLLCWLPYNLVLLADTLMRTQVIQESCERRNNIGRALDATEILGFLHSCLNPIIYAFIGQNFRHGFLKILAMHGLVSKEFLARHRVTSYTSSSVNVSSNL
Sequence of CXCR2 receptor (P25025 whole entry): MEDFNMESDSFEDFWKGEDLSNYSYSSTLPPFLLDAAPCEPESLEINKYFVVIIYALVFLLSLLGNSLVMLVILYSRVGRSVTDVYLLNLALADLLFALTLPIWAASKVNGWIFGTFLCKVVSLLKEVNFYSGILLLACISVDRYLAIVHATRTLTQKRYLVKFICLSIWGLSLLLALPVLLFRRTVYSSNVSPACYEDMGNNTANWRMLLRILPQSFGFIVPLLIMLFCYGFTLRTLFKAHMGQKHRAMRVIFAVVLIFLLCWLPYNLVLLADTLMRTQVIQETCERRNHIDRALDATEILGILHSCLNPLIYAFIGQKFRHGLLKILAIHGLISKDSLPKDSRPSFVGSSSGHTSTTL
Sequence of CCR6 (P51684 whole entry): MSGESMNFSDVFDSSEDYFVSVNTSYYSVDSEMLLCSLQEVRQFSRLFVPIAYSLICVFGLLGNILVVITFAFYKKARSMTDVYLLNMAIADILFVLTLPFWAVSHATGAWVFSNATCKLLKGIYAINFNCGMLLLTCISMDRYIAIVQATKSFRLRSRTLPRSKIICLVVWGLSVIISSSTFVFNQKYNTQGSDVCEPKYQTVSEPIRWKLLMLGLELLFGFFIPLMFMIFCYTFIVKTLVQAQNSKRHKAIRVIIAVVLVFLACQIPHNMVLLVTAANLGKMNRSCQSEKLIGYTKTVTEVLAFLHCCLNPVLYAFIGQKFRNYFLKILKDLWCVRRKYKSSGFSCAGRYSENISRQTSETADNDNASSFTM
Sequence of CCR8 (P51685 whole entry): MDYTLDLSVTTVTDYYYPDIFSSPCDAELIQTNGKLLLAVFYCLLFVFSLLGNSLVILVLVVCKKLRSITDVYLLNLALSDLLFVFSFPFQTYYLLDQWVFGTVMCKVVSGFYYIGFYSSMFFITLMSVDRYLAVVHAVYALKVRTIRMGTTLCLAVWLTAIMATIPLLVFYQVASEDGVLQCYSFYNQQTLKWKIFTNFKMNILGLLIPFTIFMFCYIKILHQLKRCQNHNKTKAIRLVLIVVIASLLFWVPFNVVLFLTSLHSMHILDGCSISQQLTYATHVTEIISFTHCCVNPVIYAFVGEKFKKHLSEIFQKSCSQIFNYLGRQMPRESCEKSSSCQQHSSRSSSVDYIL
Sequence of CCR7 (P32248 25-378): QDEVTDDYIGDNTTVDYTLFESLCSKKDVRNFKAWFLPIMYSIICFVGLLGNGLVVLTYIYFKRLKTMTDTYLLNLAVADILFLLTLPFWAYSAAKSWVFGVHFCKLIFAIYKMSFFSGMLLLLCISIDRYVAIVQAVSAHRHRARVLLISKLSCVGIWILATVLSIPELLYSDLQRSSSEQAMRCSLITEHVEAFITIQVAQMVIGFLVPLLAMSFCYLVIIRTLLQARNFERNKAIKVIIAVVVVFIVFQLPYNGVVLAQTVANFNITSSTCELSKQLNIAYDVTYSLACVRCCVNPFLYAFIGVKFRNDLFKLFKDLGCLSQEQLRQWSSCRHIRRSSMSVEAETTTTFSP
Sequence of FPR1 (P21462 whole entry): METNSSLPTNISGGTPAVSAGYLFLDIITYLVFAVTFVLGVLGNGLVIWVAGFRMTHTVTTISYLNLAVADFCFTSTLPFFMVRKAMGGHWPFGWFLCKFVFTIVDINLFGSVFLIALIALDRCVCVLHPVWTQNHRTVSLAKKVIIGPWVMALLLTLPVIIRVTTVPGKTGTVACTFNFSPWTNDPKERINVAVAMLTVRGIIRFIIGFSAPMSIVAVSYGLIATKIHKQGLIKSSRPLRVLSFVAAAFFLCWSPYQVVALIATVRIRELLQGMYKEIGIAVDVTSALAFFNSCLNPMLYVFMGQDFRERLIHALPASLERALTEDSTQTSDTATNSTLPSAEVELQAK

IC50 [1]: 55 nM
IC50 [2]: 2.2 nM
half-life at 1 μM [3]: 27 min
Half-life time [4]: 539 min
IC50 [5]: 94 nM
Compound: Cc1ccc(C(Nc2c(Nc3cccc(C(=O)N(C)C)c3O)c(=O)c2=O)C2(C)CCCO2)o1 (single isomer, unassigned) [1 (diastereoisomer 2), 2-hydroxy-N,N-dimethyl-3-(2-{[(5-methylfuran-2-yl)-(2-methyltetrahydrofuran-2-yl)methyl]amino}-3,4-dioxo-cyclobut-1-enylamino)benzamide]

Half-life time [4]: 229 min
IC50 [5]: 134 nM
Compound: Cc1ccc(C(Nc2c(Nc3cccc(C(=O)N(C)C)c3O)c(=O)c2=O)C2CCCS2)o1 (single isomer, unassigned) [Example 2 (Enantiomer 2 of diastereoisomer 2), 2-Hydroxy-N,N-dimethyl-3-(2-{[(5-methylfuran-2-yl)-(tetrahydrothiophen-2-yl)methyl]amino}-3,4-dioxo-cyclobut-1-enylamino)benzamide]

IC50 [1]: 140 nM
Half-life time [3]: 5 min
Compound: COC(=O)[C@H]1CCCN1C(=O)c1cccc(Nc2c(NC(c3ccc(C)o3)C3CCCS3)c(=O)c2=O)c1O (single isomer, unassigned) [Example 6]

IC50 [10]: 1150 nM
IC50 [5]: 170 nM
Compound: CN(C)C(=O)c1cccc(Nc2c(NC(c3ccccc3)C3CCCO3)c(=O)c2=O)c1O (stereo not drawn) [Example 13, 3-(3,4-dioxo-2-{[phenyl(tetrahydrofuran-2-yl)methyl]amino}cyclobut-1-enylamino)-2-hydroxy-N,N-dimethylbenzamide]

IC50 [10]: 384 nM
IC50 [5]: 44 nM
Compound: Cc1ccc(C(Nc2c(Nc3cccn(C)c3=O)c(=O)c2=O)C2CCCS2)o1 (stereo not drawn) [Example 17, 3-{[(5-methylfuran-2-yl)-(tetrahydrothiophen-2-yl)methyl]amino}-4-(1-methyl-2-oxo-1,2-dihydropyridin-3-ylamino)cyclobut-3-ene-1,2-dione]

activity on the chemokine receptors of the panel (CCR4, CCR6, CCR7, CCR8, CXCR3, FPR1) [11]: inactive or not very active at all
Compound: CC[C@@H](Nc1c(Nc2cccc(C(=O)N(C)C)c2O)c(=O)c1=O)c1ccc(C)o1 [SCH-527123]
dissociation time [12]: about 22 h

More lines, now with the values behind:

Compound: Cc1ccc(C(Nc2c(Nc3cccc(C(=O)N(C)C)c3O)c(=O)c2=O)C2CCCS2)o1 (single isomer, unassigned) [2 (diastereoisomer 2), 2-Hydroxy-N,N-dimethyl-3-(2-{[(5-methylfuran-2-yl)-(tetrahydrothiophen-2-yl)methyl]amino}-3,4-dioxo-cyclobut-1-enylamino)benzamide]
half-life at 1 μM [3]: 11 min
IC50 [6]: 620 nM
IC50 [7]: 6500 nM
IC50 [5]: 35 nM

Compound: Cc1ccc(C(Nc2c(Nc3cccc(C(=O)N(C)C)c3O)c(=O)c2=O)C2(C)CCCO2)o1 (single isomer, unassigned) [Example 1 (Enantiomer 2 of diastereoisomer 2), 2-Hydroxy-N,N-dimethyl-3-(2-{[(5-methylfuran-2-yl)-(2-methyltetrahydrofuran-2-yl)methyl]amino}-3,4-dioxo-cyclobut-1-enylamino)benzamide]
IC50 [8]: 8700 nM
IC50 [1]: 1.3 nM
IC50 [2]: 2 nM
IC50 [9]: 410 nM
half-life at 1 μM [4]: 300 min
IC50 [5]: 53 nM

Compound: Cc1ccc(C(Nc2c(Nc3cccc(C(=O)N(C)C)c3O)c(=O)c2=O)C2CCCS2)o1 (single isomer, unassigned) [Example 2 (Enantiomer 1 of diastereoisomer 2), 2-Hydroxy-N,N-dimethyl-3-(2-{[(5-methylfuran-2-yl)-(tetrahydrothiophen-2-yl)methyl]amino}-3,4-dioxo-cyclobut-1-enylamino)benzamide]
Half-life time [4]: 213 min
IC50 [5]: 15 nM

Compound: Cc1ccc(C(Nc2c(Nc3cccc(C(=O)N(C)C)c3O)c(=O)c2=O)C2CCCS2)o1 (single isomer, unassigned) [Example 2 (diastereoisomer 1), 2-Hydroxy-N,N-dimethyl-3-(2-{[(5-methylfuran-2-yl)-(tetrahydrothiophen-2-yl)methyl]amino}-3,4-dioxo-cyclobut-1-enylamino)benzamide]
Half-life time [3]: 9 min
Half-life time [4]: 106 min
IC50 [5]: 135 nM

Compound: COC(=O)CN(C)C(=O)c1cccc(Nc2c(N[C@@H](c3ccc(C)o3)C3CCCS3)c(=O)c2=O)c1O (single isomer, unassigned) [Example 19]
IC50 [1]: 510 nM
IC50 [2]: 11 nM
IC50 [10]: 42 nM
IC50 [9]: 8.1 nM
half-life at 1 μM [3]: 8 min
half-life at 1 μM [4]: 214 min
IC50 [5]: 20 nM

Compound: COC(=O)[C@H]1CCCN1C(=O)c1cccc(Nc2c(NC(c3ccc(C)o3)C3CCCS3)c(=O)c2=O)c1O (single isomer, unassigned) [Example 20]
IC50 [1]: 180 nM
IC50 [9]: 7.2 nM
Half-life time [3]: 17 min
half-life at 1 μM [4]: 211 min

Compound: Cc1ccc([C@H](Nc2c(Nc3cccc(C(=O)N(C)CC(F)(F)F)c3O)c(=O)c2=O)C2CCCS2)o1 (single isomer, unassigned; (-)) [Example 18]
IC50 [1]: 450 nM
IC50 [10]: 36 nM
IC50 [9]: 97 nM
half-life at 1 μM [3]: 15 min
half-life at 1 μM [4]: 82 min
IC50 [5]: 15 nM

Compound: Cc1ccc(C(Nc2c(Nc3ccc(Cl)c(S(=O)(=O)N4CCN(C)CC4)c3O)c(=O)c2=O)C2CCCS2)o1 (single isomer, unassigned; (-)) [Example 22, (−)-3-[4-chloro-2-hydroxy-3-(4-methylpiperazine-1-sulfonyl)phenylamino]-4-{[(5-methylfuran-2-yl)-(tetrahydrothiophen-2-yl)methyl]amino}cyclobut-3-ene-1,2-dione]
IC50 [1]: 150 nM
IC50 [10]: 30 nM
IC50 [9]: 9.4 nM
half-life at 1 μM [3]: 7 min
half-life at 1 μM [4]: 49 min
IC50 [5]: 17 nM

Compound: Cc1ccc(C(Nc2c(Nc3cccc(C(=O)N(C)C)c3O)c(=O)c2=O)[C@@H]2CCCO2)o1 (stereo in doubt) [Example 12, 2-hydroxy-N,N-dimethyl-3-(2-{[(S)-(5-methylfuran-2-yl)tetrahydrofuran-2-ylmethyl]amino}-3,4-dioxocyclobut-1-enylamino)benzamide]
IC50 [10]: 483 nM
IC50 [5]: 83 nM

Compound: Cc1ccc(C(Nc2c(Nc3cccc(C(=O)N4CCC[C@H]4C(=O)OC(C)C)c3F)c(=O)c2=O)C2CCCS2)o1 (stereo partly drawn) [Example 4, Isopropyl (S)-1-[2-fluoro-3-(2-{[(5-methylfuran-2-yl)-(tetrahydrothiophen-2-yl)methyl]amino}-3,4-dioxocyclobut-1-enylamino)benzoyl]pyrrolidine-2-carboxylate]
IC50 [10]: 1890 nM
IC50 [5]: 109 nM

Compound: CCOC(=O)[C@@H]1CCCN1C(=O)c1cccc(Nc2c(NC(c3ccc(C)o3)C3CCCS3)c(=O)c2=O)c1F (stereo partly drawn) [Example 5, Ethyl (S)-1-[2-fluoro-3-(2-{[(5-methylfuran-2-yl)-(tetrahydrothiophen-2-yl)methyl]amino}-3,4-dioxocyclobut-1-enylamino)benzoyl]pyrrolidine-2-carboxylate]
IC50 [10]: 711 nM
IC50 [5]: 106 nM

Compound: Methyl (S)-1[2-fluoro-3-(2-{[(R,S)-(5-methylfuran-2-yl)((S,R)-tetrahydrothiophen-2-yl)methyl]amino}-3,4-dioxocyclobut-1-enylamino)benzoyl]pyrrolidine-2-carboxylate [Example 3 (pair of enantiomers 1 and 2)]
IC50 [10]: 812 nM
Half-life time [3]: 3 min
Half-life time [4]: 141 min
IC50 [5]: 221 nM
